One compound from patent EP3875077B1, “DOSAGE FORM PROVIDING PROLONGED RELEASE OF […] SALT” (Grünenthal GmbH, priority 2020, dated 2021) can be followed below.

This data set in a line: thermodynamic solubility (saturation solubility) in various media, quantified by HPLC. Type of data set: physicochemical. To be noted: for solubility thermodynamic at 24 h: thermodynamic from solid, read-out: thermodynamic solubility, assay expressed as base. The procedure: The thermodynamic solubility of Tapentadol hydrochloride and of Tapentadol dihydrogenphosphate (mixed form, batch with fine particles) was determined as saturation solubility in various media at various pH values. The solutions were stirred for 24 hours at 25 °C and the pH values of the solutions at the start and at the end of the experiments were measured. The dissolved amount of Tapentadol was quantified by HPLC (free base of Tapentadol).

Where a name gives a salt, the structure may show the parent alone. Read-outs that look alike come from different tables or passages of the source.

A word on the thermodynamic solubility: it is solubility found after equilibrating the solid with the medium. On to `CC[C@@H](c1cccc(O)c1)[C@@H](C)CN(C)C` [Tapentadol hydrochloride, (-)-(1R,2R)-3-(3-dimethylamino-1-ethyl-2-methyl-propyl)-phenol], for which the “thermodynamic solubility, assay expressed as base” value by setting is: (0.1 M HCl, 24 hours at 25 °C) 31.2 g/100 mL; (0.15N NaOH, 24 hours at 25 °C) 6.6 g/100 mL. For the same compound, the thermodynamic solubility at 24 h came to 327 mg/mL (acetate buffer pH 4.5, aqueous buffer, acetate pH 4.5, 24 hours at 25 °C); 318 mg/mL (citrate buffer pH 6.8, aqueous buffer, citrate pH 6.8, 24 hours at 25 °C); 319 mg/mL (citrate buffer pH 7.4, aqueous buffer, citrate pH 7.4, 24 hours at 25 °C); 324 mg/mL (fassgf or other biorelevant, SIF sp pH 6.8, 24 hours at 25 °C); 330 mg/mL (water, 24 hours at 25 °C).
